The test system of test [1] is SOD1G93A mutant rat model of ALS. Kind of test: Immunohistochemical staining of spinal cords after post-paralysis isoquercetin treatment (Example 1). The format is in vivo. Conditions: SOD1G93A rats, versus vehicle. As for the experimental part:
Materials and Methods: Animals: Male SOD1G93A progeny were used for further breeding to maintain the line. Rats were housed in a centralized animal facility with a 12-h light-dark cycle with ad libitum access to food and water. Perfusion with fixatives was performed under 90% ketamine-10% xylazine anesthesia and all efforts were made to minimize animal suffering, discomfort, or stress. All procedures using laboratory animals were performed in accordance with the national and international guidelines and were approved by the Institutional Animal Committee for animal experimentation. Male hemizygous NTac:SD-TgN (SOD1-G93A)L26H rats (Taconic), originally developed by Howland et al. (2002), were bred locally by crossing with wild-type nontransgenic Sprague-Dawley female rats.
Treatment with Isoquercetin: All rats were weighed and evaluated for motor activity daily.
Fixed spinal cords were removed, postfixed by immersion for 24 h, and then transverse sectioned ([…]) in a Leica cryostat. Serial sections were collected in 100 mM PBS for immunohistochemistry.

Test [2] deals with rat model of ALS. Conditions: downregulation of aberrant glial cells and reactive microglia; cited from earlier work.

Molecules are shown by their SMILES. “Also recorded” adds a separate entry of the source.

For `O=c1c(O[C@@H]2O[C@H](CO)[C@@H](O)[C@H](O)[C@H]2O)c(-c2ccc(O)c(O)c2)oc2cc(O)cc(O)c12` [isoquercetin, quercetin-3-O-β-d-glucopyranoside], the “number of ventral horn motor neurons expressing misfolded SOD1 and Ubiquitin” value in test [1] (15 days after paralysis onset) was “apparently reduced; also recorded: significant reduction”. Further, the “microgliosis: number of Iba1+ cells in the ventral horn of the lumbar spinal cord” value in test [1] (oral 30 mg/kg/day for 15 days starting after paralysis onset, 30 mg/kg/day) is “significantly reduced; also recorded: Significant reduction”. For the same compound, the “number of hypertrophic (reactive, GFAP-positive) astrocytes surrounding motor neurons in the lumbar spinal cord” value in test [1] (oral 30 mg/kg/day for 15 days starting after paralysis onset, given together with vitamin C and niacin, 30 mg/kg/day) is “significantly reduced; also recorded: significant reduction”.

Regarding `Cc1ccc(NC(=O)c2ccc(CN3CCN(C)CC3)cc2)cc1Nc1nc(-c2cccnc2)cs1` [masitinib], in test [2], the paralysis progression entry is on record as “slowed paralysis progression”.

The values are drawn from patent US12403122B2, “Method for treating amyotrophic lateral sclerosis using quercetin-containing compositions” (Quercis Pharma AG, priority 2021, dated 2025).
